These results are taken from paper PMC8125951, “Exploring the 2′-Hydroxy-Chalcone Framework for the Development of Dual Antioxidant and Soybean Lipoxygenase Inhibitory Agents” (Molecules, 2021).

Like-named read-outs stand apart in the source and are kept apart here.

The nature of assay [1]: Inhibition of linoleic acid lipid peroxidation induced by AAPH. The source says:
The second technique is based on the ability of the compounds to inhibit lipid peroxidation of linoleic acid induced by 2,2′-Azobis(2-amidinopropane) dihydrochloride (AAPH) radical (Table 2). AAPH-induced linoleic acid oxidation has been developed as a quick and reliable method for measuring the antioxidant activity. The thermal free radical producer (AAPH) generates free radicals in the solution which cause the oxidation of linoleic acid, and the method is a measure of how effective antioxidants protect against lipid peroxidation in vitro. Oxidation of linoleic acid by AAPH is followed by UV spectrophotometry in a highly diluted sample [61].
2,2′-Azobis(2-amidinopropane) dihydrochloride (AAPH) was used as a free radical initiator. Ten microliters of the 16 mM linoleic acid sodium salt solution was added to the UV cuvette containing 0.93 mL of 0.05 M phosphate buffer, pH 7.4 prethermostated at 37 °C. The oxidation reaction was initiated at 37 °C under air by the addition of 50 μL of 40 mM AAPH solution. Oxidation was carried out in the presence of the synthesized compounds (10 μL, from a stock solution of 10 mM in DMSO). In the assay without antioxidant, lipid oxidation was measured in the presence of the same level of DMSO.

The nature of assay [2]: Interaction with the stable free radical DPPH (reducing activity). How it is done: The first assay refers to the interaction of the compounds with the stable free radical DPPH and it is a fast, simple, cost-effective, and widely used method, where the DPPH radical reacts directly with the antioxidant and is decolorized. This interaction indicates their radical scavenging ability in an iron-free system. The scavenging effect of the synthesized analogues on the DPPH radical was evaluated according to the methods of Hadjipavlou et al..
To an ethanolic solution of DPPH (100 μM) in absolute ethanol, an equal volume of the compounds dissolved in DMSO was added (100 μM). […]

Assay [3] in a line: Competition of the tested compounds with DMSO for hydroxyl radicals. The note with it: 100 μM. The source says: Among the reactive oxygen species (ROS), the hydroxyl (^•OH) free radical is possibly the most toxic, reacting with several biological important molecules such as DNA, lipids, or carbohydrates. Polyunsaturated fatty acids are particularly vulnerable by free radicals. Iron released from damaged cells is more likely to be readily available to catalyze the generation of ^•OH radicals. Thus, we tried to test the ability of our compounds to scavenge hydroxyl radicals determining the competition of selected chalcones and aurones with DMSO for hydroxyl radicals. Hydroxyl radicals were generated using the Fe^3+/ascorbic acid system and expressed as a percentage inhibition of formaldehyde production in the presence of each compound at 100 μM.
The hydroxyl radicals generated by the Fe^3+ / ascorbic acid system, were detected by the determination of formaldehyde produced from the oxidation of DMSO (Table 2). A negative control using the same % DMSO was used. Trolox was used as reference compound [75].

The nature of assay [4]: ABTS radical cation decolorization assay. The note with it: 100 μM. Here is the method: The ABTS radical cation decolorization assay was used as another antioxidant activity estimation protocol (Table 2). Oxidation of ABTS with potassium persulfate generates directly the radical with no involvement of an intermediate radical, which is then reduced upon adding electron-donating antioxidants.
In order to produce the ABTS radical cation (ABTS^+·), ABTS stock solution in water (7 mM) was mixed with potassium persulfate (2.45 mM) and left in the dark at room temperature for 12–16 h before use. Our published experimental technique was used (1). The results are recorded after 1 min of the mixing solutions at 734 nm. The results were compared to the appropriate standard inhibitor Trolox.

In another assay the target is T1, soybean lipoxygenase (Glycine max, UniProt P08170).
T1 sequence (P08170 1-839): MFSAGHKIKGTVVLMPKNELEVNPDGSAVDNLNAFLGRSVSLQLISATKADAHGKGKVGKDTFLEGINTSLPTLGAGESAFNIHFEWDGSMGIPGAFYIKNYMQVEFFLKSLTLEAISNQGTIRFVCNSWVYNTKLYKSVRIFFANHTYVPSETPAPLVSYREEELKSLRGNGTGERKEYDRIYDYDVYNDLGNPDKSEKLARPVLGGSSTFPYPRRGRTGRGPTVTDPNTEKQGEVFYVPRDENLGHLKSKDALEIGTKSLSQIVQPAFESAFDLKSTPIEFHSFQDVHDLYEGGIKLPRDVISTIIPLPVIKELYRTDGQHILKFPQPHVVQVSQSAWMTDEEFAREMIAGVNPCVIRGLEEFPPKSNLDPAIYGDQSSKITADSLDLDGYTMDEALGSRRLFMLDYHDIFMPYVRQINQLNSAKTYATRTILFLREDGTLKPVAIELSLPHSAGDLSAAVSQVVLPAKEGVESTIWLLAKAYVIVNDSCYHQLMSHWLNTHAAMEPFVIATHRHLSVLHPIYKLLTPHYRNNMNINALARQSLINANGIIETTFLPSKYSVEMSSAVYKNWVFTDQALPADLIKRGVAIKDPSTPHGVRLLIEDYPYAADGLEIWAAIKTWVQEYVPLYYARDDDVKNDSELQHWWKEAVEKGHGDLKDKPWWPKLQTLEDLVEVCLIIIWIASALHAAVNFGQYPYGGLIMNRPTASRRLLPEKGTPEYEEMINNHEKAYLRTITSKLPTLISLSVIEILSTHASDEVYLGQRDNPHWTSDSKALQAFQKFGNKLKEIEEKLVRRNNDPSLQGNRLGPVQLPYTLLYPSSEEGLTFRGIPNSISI
Put plainly: Soybean LOX inhibition study in vitro. Format: biochemical. The note with it: for inhibition at 100 µM: read-out: Inhibition of Soybean Lipoxygenase 100 μM (%). How it is done: Furthermore, as an indication of their anti-inflammatory activity, all the molecules were tested as inhibitors of soybean lipoxygenase (LOX). The enzyme lipoxygenase catalyzes the first two steps in the metabolism of arachidonic acid, which is cleaved from membrane phospholipids to leukotrienes (LTB4). LTB4 generation is considered to be important in the pathogenesis of neutrophil-mediated inflammatory diseases. For this study, the UV absorbance-based soybean LOX assay was used, which is a plant enzyme with satisfactory homology with the human 5-LOX [61, 62, 63, 64, 65, 66].
The tested compounds dissolved in DMSO were incubated at room temperature with sodium linoleate (0.1 mL) and 0.2 mL of enzyme solution ([…] in saline) in Tris buffer pH 9.

Where [5] appears, read: read-out: Inhibition of Soybean Lipoxygenase IC50.

For `COCOc1ccc(C(=O)/C=C/c2ccc(OCOC)c(OCOC)c2)c(O)c1` [Compound 3a, 2′-hydroxy-4′,3,4-methoxymethoxy-chalcone], the “Inhibition of Lipid Peroxidation of Linoleic Acid Induced by AAPH Radical (%)” value (“Inhibition of Lipid Peroxidation … (%)” below) in assay [1] (100 μM) came out at 11.4%. Also, in assay [2] (100 μM, 60 min), the “Interaction with the Free Radical DPPH (%)” value was 21.6%. In addition, in assay [3], the “HO· (%) competition with DMSO for hydroxyl radicals” value (“HO· (%) competition with DMSO” below) is on record as 40%. In assay [4], the “ABTS+· %” value amounted to 93%. In addition, the inhibition at 100 µM on soybean lipoxygenase (at 100 μM) is 40.2%.
For the molecule `COc1cc(OC)c(OC)cc1/C=C/C(=O)c1ccccc1O` [Compound 3b, 2′-hydroxy-2,4,5-trimethoxy-chalcone], the “Inhibition of Lipid Peroxidation … (%)” value in assay [1] (100 μM) was 67.3%. The “Interaction with the Free Radical DPPH (%)” value in assay [2] (100 μM, 20 min) is “no”; in assay [2] (100 μM, 60 min), “no”. Besides, the “HO· (%) competition with DMSO” value in assay [3] is listed as “no”. Also, the IC50 on soybean lipoxygenase (setting [5]) is 75 µM.
In the case of `O=C(/C=C/c1ccccc1)c1ccccc1O` [Compound 3l, 2′-hydroxy-chalcone], the “Inhibition of Lipid Peroxidation … (%)” value in assay [1] (0 min) amounted to 87.6%; in assay [1] (100 μM), 87.6%; in assay [1] (3 min), 93.2%; in assay [1] (6 min), 95.7%; in assay [1] (9 min), 94.3%. The “Interaction with the Free Radical DPPH (%)” value is listed as “no” in assay [2] (100 μM, 20 min) and “no” in assay [2] (100 μM, 60 min). Half-maximal inhibition against soybean lipoxygenase (IC50) required 100 µM.
As for `O=C(/C=C/c1ccc(O)c(O)c1)c1ccc(O)cc1O` [Compound 4a, 2′,3,4,4′-tetrahydroxy-chalcone], in assay [1] (100 μM), the “Inhibition of Lipid Peroxidation … (%)” value is 24.4%. The “Interaction with the Free Radical DPPH (%)” value was determined as 95.4% in assay [2] (0 min); 95.7% in assay [2] (100 μM, 20 min); 95.3% in assay [2] (100 μM, 60 min); 95.4% in assay [2] (3 min); 94.9% in assay [2] (6 min); 95.4% in assay [2] (9 min). Further, the “HO· (%) competition with DMSO” value in assay [3] is listed as 68%. For the same molecule, in assay [4], the “ABTS+· %” value is reported as 86%. Further, the inhibition at 100 µM on soybean lipoxygenase (at 100 μM) is 39.3%.
For `COC(=O)c1ccc(/C=C/C(=O)c2ccccc2O)cc1` [Compound 5, 4-Methoxycarbonyl-2′-Hydroxy-Chalcone], the “Inhibition of Lipid Peroxidation … (%)” value in assay [1] (0 min) is 95.4%; in assay [1] (100 μM), 100%; in assay [1] (3 min), 96.9%; in assay [1] (6 min) it was 92.5%; in assay [1] (9 min), 98.9%. In addition, the “Interaction with the Free Radical DPPH (%)” value is recorded as “no” in assay [2] (100 μM, 20 min) and “no” in assay [2] (100 μM, 60 min). Besides, at soybean lipoxygenase (setting [5]), the IC50 came out at 100 µM.
Consider `O=C1/C(=C/c2cc(O)c(O)cc2O)Oc2ccccc21` [Compound 7b, 2′,4′,5′-Trihydroxy-Aurone], for which the “Interaction with the Free Radical DPPH (%)” value in assay [2] (0 min) worked out at 98.2%; in assay [2] (100 μM, 20 min), 100%; in assay [2] (100 μM, 60 min), 100%; in assay [2] (3 min) it was 99.3%; in assay [2] (6 min), 99.5%; in assay [2] (9 min), 99.8%. For the same molecule, the “HO· (%) competition with DMSO” value in assay [3] is on record as 77%. In addition, the “ABTS+· %” value in assay [4] was “no”. Further, on soybean lipoxygenase (at 100 μM), the “Inhibition of Soybean Lipoxygenase 100 μM (%)” value was “no”.
As to `Cc1c(C)c2c(c(C)c1O)CCC(C)(C(=O)O)O2` (centres unmarked) [Trolox, reference compound], the “Inhibition of Lipid Peroxidation … (%)” value in assay [1] (100 μM) was determined as 92.0%. Moreover, the “Interaction with the Free Radical DPPH (%)” value in assay [2] (100 μM, 20 min) is on record as 93.0%; in assay [2] (100 μM, 60 min) it was 93.6%. In assay [3], the “HO· (%) competition with DMSO” value stood at 82%. For the same molecule, in assay [4], the “ABTS+· %” value was 93%.

One may read the inhibition as the change of the read-out against control, counted positive when it falls. One may read the IC50 as the point on the concentration scale where inhibition reaches its midpoint.
